According to patent US20240059703A1 (AMGEN INC., priority 2021, published 2024):

Columns and labels:
[1] = molecular target: KRAS G12C (Homo sapiens (Human), UniProt P01116, C118A/G12C); experiment: 2 h coupled exchange assay; format: biochemical; conditions: Avg 2 h Coupled exchange IC50, 2 h compound pre-incubation
Experimental: The term “2 h coupled exchange assay” or “20 h coupled exchange assay” as used herein refers to the assay described in the Section entitled “BIOLOGICAL EVALUATION.”

[2] = test system: A549 (human lung carcinoma) cells; experiment: Cell Viability Assay (CellTiter-Glo), A549; format: cell-based
How it was run: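 MIA PaCa-2 or A549 cells in RPMI 1640 with 10% FBS were seeded at 1.67E+04 cells/mL and incubated overnight. Serially diluted compound was then added for 72 h at 37° C, 5% CO2. Viability read by CellTiter-Glo luminescence, normalized to DMSO, with IC50 from a 4-parameter logistic fit.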

[3] = test system: MIA PaCa-2 (human pancreatic carcinoma) cells; experiment: Cell Viability Assay (CellTiter-Glo), MIA PaCa-2; format: cell-based
Experimental: Serially-diluted compound or DMSO was added to the cells, and plates were incubated at 37° C., 5% CO2 for 72 h. Cell viability was measured using a CellTiter-Glo® Luminescent Cell Viability Assay kit (Promega) according to the manufacturer's protocol. The luminescence signal of treated samples was normalized to DMSO control, and data were analyzed using a 4-parameter logistic model to calculate IC50 values.

[4] = SOS-mediated nucleotide exchange

Sequence of KRAS G12C (P01116 other isoform, or with tags, fused parts or gaps G12C/C118A): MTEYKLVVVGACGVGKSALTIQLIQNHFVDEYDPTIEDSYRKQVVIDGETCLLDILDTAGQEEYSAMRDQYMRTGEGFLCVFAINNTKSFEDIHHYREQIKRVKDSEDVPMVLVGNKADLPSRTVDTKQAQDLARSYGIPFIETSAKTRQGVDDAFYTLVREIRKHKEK

Structure (SMILES) | IC50 [1, 4] | IC50 ([2]; Homo sapiens, A549, 72 h) | IC50 ([3]; Homo sapiens, MIA PaCa-2, 72 h) | IC50 [1] | IC50 ([2]; 72 h) | IC50 ([3]; 72 h)
C=CC(=O)N1CC2(CCN(c3nc4c(c(-c5c(C)ccc6[nH]ncc56)c3C#N)CCC(C)(C)C4)[C@H]2CF)C1 (stereo in doubt) [Example 13-80, (M)-2-((5S)-5-(fluoromethyl)-2-(2-propenoyl)-2,6-diazaspiro[3.4]octan-6-yl)-7,7-dimethyl-4-(5-methyl-1H-indazol-4-yl)-5,6,7,8-tetrahydro-3-quinolinecarbonitrile and (P)-2-((5R)-5-(fluoromethyl)-2-(2-propenoyl)-2,6-diazaspiro[3.4]octan-6-yl)-7,7-dimethyl-4-(5-methyl-1H-indazol-4-yl)-5,6,7,8-tetrahydro-3-quinolinecarbonitrile] | 45 nM | > 5000 nM | 952 nM |  |  | 
C=CC(=O)N1CC2(CCN(c3nc4c(N5CCN(C)CC5)ccn4c(-c4c(C)ccc5[nH]ncc45)c3C#N)C2)C1 [Example 1-53] | 99 nM | > 50000 nM | 13400 nM |  |  | 
C=CC(=O)N1CC2(CCN(c3nc4cc(-c5c(C)nn(C)c5C)ccc4c(-c4ccccc4Cl)c3C#N)C2)C1 [Example 14-46, 4-(2-chlorophenyl)-2-(2-(2-propenoyl)-2,6-diazaspiro[3.4]octan-6-yl)-7-(1,3,5-trimethyl-1H-pyrazol-4-yl)-3-quinolinecarbonitrile] |  | 2380 nM | 459 nM | 113 nM |  | 
C=CC(=O)N1CC2(CCN(c3nc4c(c(-c5c(C)ccc6[nH]ncc56)c3C#N)CCC4(C)C)C2)C1 [Example 13-97, 2-(2-acryloyl-2,6-diazaspiro[3.4]octan-6-yl)-7,7-dimethyl-4-(5-methyl-1H-indazol-4-yl)-6,7-dihydro-5H-cyclopenta[b]pyridine-3-carbonitrile] | 46 nM | > 5000 nM | 423 nM |  |  | 
C=CC(=O)N1CC2(CCN(c3nc4cc(-c5scnc5C)ccc4c(-c4c(O)cccc4F)c3C#N)C2)C1 (single isomer, unassigned) [Example 19-15, (M)-4-(2-fluoro-6-hydroxyphenyl)-7-(4-methyl-1,3-thiazol-5-yl)-2-(2-(2-propenoyl)-2,6-diazaspiro[3.4]octan-6-yl)-3-quinolinecarbonitrile] |  |  |  | 2960 nM | 7600 nM | 4560 nM
C=CC(=O)N1CC2(CCN(c3nc4c(c(-c5c(C)ccc6[nH]ncc56)c3C#N)CC(C)(C)C4)C2)C1 [Example 13-12, 6,6-dimethyl-4-(5-methyl-1H-indazol-4-yl)-2-(2-(2-propenoyl)-2,6-diazaspiro[3.4]octan-6-yl)-6,7-dihydro-5H-cyclopenta[b]pyridine-3-carbonitrile] | 29 nM | > 5000 nM | 157 nM |  |  | 
C=CC(=O)N1CC2(CCN(c3nc4c(c(-c5cc(O)c(F)c6ccccc56)c3C#N)CC[C@@H]3C[C@H]43)C2)C1 (single isomer, unassigned) [Example 13-76] | 40 nM |  |  |  | 3260 nM | 1190 nM
C=CC(=O)N1CC2(CCN(c3nc4c(c(-c5ccccc5F)c3C#N)CCN(C3CC3)C4)C2)C1 [Example 21-37, 7-cyclopropyl-4-(2-fluorophenyl)-2-(2-(2-propenoyl)-2,6-diazaspiro[3.4]octan-6-yl)-5,6,7,8-tetrahydro-1,7-naphthyridine-3-carbonitrile] |  | > 5000 nM | 461 nM | 90 nM |  | 
C=CC(=O)N1CC2(CCN(c3nc4c(c(-c5cccc(F)c5O)c3C#N)CCN(c3scnc3C)C4)C2)C1 [Example 21-14, 4-(3-fluoro-2-hydroxyphenyl)-7-(4-methyl-1,3-thiazol-5-yl)-2-(2-(2-propenoyl)-2,6-diazaspiro[3.4]octan-6-yl)-5,6,7,8-tetrahydro-1,7-naphthyridine-3-carbonitrile] |  | > 5000 nM | > 5000 nM | 35 nM |  | 
C=CC(=O)N1CC2(CCN(c3nc4c(c(-c5cccc6cn[nH]c56)c3C#N)C[C@H]3C[C@@H]4C3(C)C)C2)C1 (single isomer, unassigned) [Example 14-29] |  | > 5000 nM | 143 nM | 58 nM |  | 
C=CC(=O)N1CC2(CCN(c3nc4cc(-c5scnc5C)ccc4c(-c4c(O)cccc4F)c3C#N)C2)C1 [Example 19-3, 4-(2-fluoro-6-hydroxyphenyl)-7-(4-methyl-1,3-thiazol-5-yl)-2-(2-(2-propenoyl)-2,6-diazaspiro[3.4]octan-6-yl)-3-quinolinecarbonitrile] |  | 4180 nM | 717 nM | 58 nM |  | 
C=CC(=O)N1CC2(CCN(c3nc4c(C)cccc4c(-c4c(C)ccc5[nH]ncc45)c3C#N)C2)C1 [Example 1-6, 8-methyl-4-(5-methyl-1H-indazol-4-yl)-2-(2-(2-propenoyl)-2,6-diazaspiro[3.4]octan-6-yl)-3-quinolinecarbonitrile] | 1890 nM | 6440 nM | 1140 nM |  |  | 
C=CC(=O)N1CC2(CCN(c3nc4c(c(-c5ccccc5Cl)c3C#N)CCN(c3scnc3C)C4)C2)C1 (single isomer, unassigned) [Example 21-23, (M)-4-(2-chlorophenyl)-7-(4-methyl-1,3-thiazol-5-yl)-2-(2-(2-propenoyl)-2,6-diazaspiro[3.4]octan-6-yl)-5,6,7,8-tetrahydro-1,7-naphthyridine-3-carbonitrile] |  |  |  | 114 nM | > 5000 nM | 619 nM
C=CC(=O)N1CC2(CCN(c3nc4c(c(-c5cc(O)c(F)c6ccccc56)c3C#N)CC[C@@H]3C[C@H]43)C2)C1 (single isomer, unassigned) [Example 13-74] | 76 nM | > 5000 nM |  |  |  | > 5000 nM
C=CC(=O)N1CC2(CCN(c3nc4c(c(-c5c(F)cccc5CO)c3C#N)C[C@H]3C[C@@H]4C3(C)C)C2)C1 [Example 2-73, (1R,9R)-6-(2-fluoro-6-(hydroxymethyl)phenyl)-10,10-dimethyl-4-(2-(2-propenoyl)-2,6-diazaspiro[3.4]octan-6-yl)-3-azatricyclo[7.1.1.0^2,7]undeca-2,4,6-triene-5-carbonitrile] | 228 nM | > 5000 nM | 1940 nM |  |  | 
C=CC(=O)N1CC2(CCN(c3nc4c(c(-c5cccc(F)c5O)c3C#N)CCC(c3scnc3C)=C4)C2)C1 [Example 23-54, 4-(3-fluoro-2-hydroxyphenyl)-7-(4-methyl-1,3-thiazol-5-yl)-2-(2-(2-propenoyl)-2,6-diazaspiro[3.4]octan-6-yl)-5,6-dihydro-3-quinolinecarbonitrile] |  | > 5000 nM | 2110 nM | 112 nM |  | 
C=CC(=O)N1CC2(CCN(c3nc4c(c(-c5c(Cl)ccc6[nH]ncc56)c3C#N)CCC(C)(C)C4)C2)C1 [Example 13-144, 4-(5-chloro-1H-indazol-4-yl)-7,7-dimethyl-2-(2-(2-propenoyl)-2,6-diazaspiro[3.4]octan-6-yl)-5,6,7,8-tetrahydro-3-quinolinecarbonitrile] | 41 nM | 3800 nM | 172 nM |  |  | 
C=CC(=O)N1CC2(CCN(c3nc4c(c(-c5c(C)ccc6[nH]ncc56)c3C)COC(C)(C)C4)C2)C1 (single isomer, unassigned) [Example 14-33, (P)-1-(6-(3,7,7-trimethyl-4-(5-methyl-1H-indazol-4-yl)-7,8-dihydro-5H-pyrano[4,3-b]pyridin-2-yl)-2,6-diazaspiro[3.4]octan-2-yl)-2-propen-1-one] |  | > 5000 nM | 32 nM | 44 nM |  | 
C=CC(=O)N1CC2(CCN(c3nc4c(c(-c5cc(N)cc6ccccc56)c3C#N)COC(C)(C)C4)C2)C1 [Example 38-1, 4-(3-amino-1-naphthalenyl)-7,7-dimethyl-2-(2-(2-propenoyl)-2,6-diazaspiro[3.4]octan-6-yl)-7,8-dihydro-5H-pyrano[4,3-b]pyridine-3-carbonitrile] |  | 12700 nM | 348 nM | 407 nM |  | 
C=CC(=O)N1CC2(CCN(c3nc4cc(-c5scnc5C)cnc4c(-c4ccccc4Cl)c3C#N)C2)C1 [Example 20-7, 4-(2-chlorophenyl)-7-(4-methyl-1,3-thiazol-5-yl)-2-(2-(2-propenoyl)-2,6-diazaspiro[3.4]octan-6-yl)-1,5-naphthyridine-3-carbonitrile] |  | > 5000 nM | 534 nM | 131 nM |  | 
C=CC(=O)N1CC2(CCN(c3nc4c(c(-c5c(C)ccc6cnn(C)c56)c3C#N)COC(C)(C)C4)C2)C1 [Example 13-49, 4-(1,6-dimethyl-1H-indazol-7-yl)-7,7-dimethyl-2-(2-(2-propenoyl)-2,6-diazaspiro[3.4]octan-6-yl)-7,8-dihydro-5H-pyrano[4,3-b]pyridine-3-carbonitrile] | 123 nM | > 5000 nM | 442 nM |  |  | 
C=CC(=O)N1CC2(CCN(c3nc4c(c(-c5c(O)cccc5Cl)c3C#N)CCC(c3scnc3C)=C4)C2)C1 [Example 23-34, 4-(2-chloro-6-hydroxyphenyl)-7-(4-methyl-1,3-thiazol-5-yl)-2-(2-(2-propenoyl)-2,6-diazaspiro[3.4]octan-6-yl)-5,6-dihydro-3-quinolinecarbonitrile] |  | > 5000 nM | 1090 nM | 97 nM |  | 
C=CC(=O)N1CC2(CCN(c3nc4c(c(-c5c(C)c(C)cc6cnn(C)c56)c3C#N)COC(C)(C)C4)C2)C1 [Example 13-90, 7,7-dimethyl-2-(2-(2-propenoyl)-2,6-diazaspiro[3.4]octan-6-yl)-4-(1,5,6-trimethyl-1H-indazol-7-yl)-7,8-dihydro-5H-pyrano[4,3-b]pyridine-3-carbonitrile] | 27 nM | > 5000 nM | 24 nM |  |  | 
